pIC50: −log10 of the molar value. Where a name gives a salt, the structure may show the parent alone.
Molecular target: T1, TAK1-TAB1 fusion protein (Homo sapiens, UniProt O43318)
T1 construct: purchased Carna
T1 sequence (O43318 with tags, fused parts or gaps limits assumed): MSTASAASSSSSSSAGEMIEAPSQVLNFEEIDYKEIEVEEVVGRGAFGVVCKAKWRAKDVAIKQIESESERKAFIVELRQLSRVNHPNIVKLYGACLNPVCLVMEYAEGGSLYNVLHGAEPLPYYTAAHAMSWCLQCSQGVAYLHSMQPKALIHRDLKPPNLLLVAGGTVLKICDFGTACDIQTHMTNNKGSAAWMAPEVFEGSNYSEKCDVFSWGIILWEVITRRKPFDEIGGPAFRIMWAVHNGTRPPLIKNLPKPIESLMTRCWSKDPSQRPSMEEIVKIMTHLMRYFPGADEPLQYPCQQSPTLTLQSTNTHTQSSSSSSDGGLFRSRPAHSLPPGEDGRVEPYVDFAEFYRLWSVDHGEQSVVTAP
Assay: TAK1 biochemical assay (AlphaScreen, GST-MAP2K7 substrate)
Settings: not given

Row | Compound | pIC50
1 | CC(=O)N1CCC(n2cc(-c3cnc(N)c4oc(C5=CCNCC5)cc34)cn2)CC1 [Example 95, 1-(4-{4-[7-amino-2-(1,2,3,6-tetrahydropyridin-4-yl)furo[2,3-c]pyridin-4-yl]-1H-pyrazol-1-yl}piperidin-1-yl)ethanone hydrochloride] | 6.00 to 7.00

Same assay, conditions: TAK1-TAB1 fusion protein, GST-MAP2K7 substrate; read-out: mean TAK1 IC50 (Col. A)

Row | Compound | pIC50
2 | CC(=O)N1CCC(n2cc(-c3cnc(N(C)C)c4oc(-c5csc6cnccc56)cc34)cn2)CC1 [Example 276, 1-(4-{4-[7-(dimethylamino)-2-(thieno[2,3-c]pyridin-3-yl)furo[2,3-c]pyridin-4-yl]-1H-pyrazol-1-yl}piperidin-1-yl)ethanone trifluoroacetic acid salt] | 5.00 to 6.00
3 | CC(=O)N1CCC(n2cc(-c3cnc(N)c4oc(-c5ccc(C#N)cc5)cc34)cn2)CC1 [Example 170, 4-{4-[1-(1-acetylpiperidin-4-yl)-1H-pyrazol-4-yl]-7-aminofuro[2,3-c]pyridin-2-yl}benzonitrile] | 5.00 to 6.00
4 | Nc1ncc(-c2cnn(C3CCNCC3)c2)c2cc(-c3cccc4ccsc34)oc12 [Example 17, 4-{4-[7-amino-2-(1-benzothiophen-7-yl)furo[2,3-c]pyridine-4-yl]-1H-pyrazol-1-yl}piperidine hydrochloride] | 5.00 to 6.00
5 | Cn1cc2c(-c3cc4c(-c5cnn([C@H]6CC[C@H](O)CC6)c5)cnc(N)c4o3)csc2cc1=O [Example 259, 3-{7-amino-4-[1-(trans-4-hydroxycyclohexyl)-1H-pyrazol-4-yl]furo[2,3-c]pyridin-2-yl}-5-methylthieno[3,2-c]pyridin-6(5H)-one] | < 5.00
6 | Nc1ncc(-c2cnn([C@H]3CC[C@H](O)CC3)c2)c2cc(-c3cc(-c4cccc(F)c4)cc4nnsc34)oc12 [Example 369, trans-4-(4-{7-amino-2-[5-(3-fluorophenyl)-1,2,3-benzothiadiazol-7-yl]furo[2,3-c]pyridin-4-yl}-1H-pyrazol-1-yl)cyclohexanol] | 5.00 to 6.00
7 | Nc1ncc(-c2cnn([C@H]3CC[C@H](O)CC3)c2)c2cc(-c3ccc4c(c3)CC(=O)N4)oc12 [Example 405, 5-{7-amino-4-[1-(trans-4-hydroxycyclohexyl)-1H-pyrazol-4-yl]furo[2,3-c]pyridin-2-yl}-1,3-dihydro-2H-indol-2-one] | 5.00 to 6.00
8 | CC(=O)N1CCC(n2cc(-c3cnc(N)c4oc(C5CCCC5)cc34)cn2)CC1 [Example 198, 1-{4-[4-(7-amino-2-cyclopentylfuro[2,3-c]pyridin-4-yl)-1H-pyrazol-1-yl]piperidin-1-yl}ethanone] | 5.00 to 6.00
9 | CC(=O)N1CCC(n2cc(-c3cnc(N)c4oc(C5=CCC6(CC5)OCCO6)cc34)cn2)CC1 [Example 408, 1-(4-{4-[7-amino-2-(1,4-dioxaspiro[4.5]dec-7-en-8-yl)furo[2,3-c]pyridin-4-yl]-1H-pyrazol-1-yl}piperidin-1-yl)ethanone] | < 5.00
10 | CC(=O)N1CCC(n2cc(-c3cnc(N)c4oc(-c5ccc6cc[nH]c6c5)cc34)cn2)CC1 [Example 167, 1-(4-{4-[7-amino-2-(1H-indol-6-yl)furo[2,3-c]pyridin-4-yl}-1H-pyrazol-1-yl}piperidin-1-yl)ethanone] | 5.00 to 6.00
11 | Cc1nc(C)c(-c2cnc(N)c3oc(-c4csc5cnccc45)cc23)s1 [Example 394, 4-(2,4-dimethyl-thiazol-5-yl)-2-thieno[2,3-c]pyridin-3-yl-furo[2,3-c]pyridin-7-ylamine] | 5.00 to 6.00
12 | CC(=O)N1CCC(n2cc(-c3cnc(N)c4oc(-c5ccnc6cc(Cl)ccc56)cc34)cn2)CC1 [Example 409, 1-(4-{4-[7-amino-2-(7-chloroquinolin-4-yl)furo[2,3-c]pyridin-4-yl]-1H-pyrazol-1-yl}piperidin-1-yl)ethanone] | 5.00 to 6.00
13 | CC(=O)N1CCC(n2cc(-c3cnc(N)c4oc(-c5ccc6cn[nH]c6c5)cc34)cn2)CC1 [Example 99, 1-(4-{4-[7-amino-2-(1H-indazol-6-yl)furo[2,3-c]pyridin-4-yl]-1H-pyrazol-1-yl}piperidin-1-yl)ethanone] | 6.00 to 7.00
14 | CC(=O)N1CCC(n2cc(-c3cnc(N)c4oc(-c5cccc(C(F)(F)F)c5)cc34)cn2)CC1 [Example 185, 1-[4-(4-{7-amino-2-[3-(trifluoromethyl)phenyl]furo[2,3-c]pyridin-4-yl}-1H-pyrazol-1-yl)piperidin-1-yl]ethanone] | 5.00 to 6.00
15 | Cn1cnc2cc(-c3oc4c(N)ncc(-c5cnn(C6CCNCC6)c5)c4c3Cl)cnc21 [Example 15, 3-chloro-2-(3-methyl-3H-imidazo[4,5-b]pyridine-6-yl)-4-[1-(piperidin-4-yl)-1H-pyrazol-4-yl]furo[2,3-c]pyridin-7-amine hydrochloride] | 5.00 to 6.00
16 | CC(=O)N1CCC(n2cc(-c3cnc(N)c4oc(-c5cccc(OC(C)C)c5)cc34)cn2)CC1 [Example 165, 1-[4-(4-{7-amino-2-[3-(propan-2-yloxy)phenyl]furo[2,3-c}pyridin-4-yl}-1H-pyrazol-1-yl)piperidin-1-yl}ethanone] | 5.00 to 6.00
17 | Nc1ncc(-c2cnn([C@H]3CC[C@H](O)CC3)c2)c2cc(-c3ccc4cn[nH]c4c3)oc12 [Example 406, trans-4-{4-[7-amino-2-(1H-indazol-6-yl)furo[2,3-c]pyridin-4-yl]-1H-pyrazol-1-yl}cyclohexanol] | 6.00 to 7.00

Row | Compound | pIC50
18 | CN1CCC(n2cc(-c3cnc(N)c4oc(-c5cccc6ccsc56)cc34)cn2)CC1 [Example 57, 2-(1-benzothiophen-7-yl)-4-[1-(1-methylpiperidin-4-yl)-1H-pyrazol-4-yl]furo[2,3-c]pyridin-7-amine] | 5.00 to 6.00
19 | CC(C)Oc1cccc(/C=C/C(=O)N2CCC(n3cc(-c4cnc(N)c5oc(-c6cccc7cnsc67)cc45)cn3)CC2)c1 [Example 337, (E)-1-{4-[4-(7-amino-2-benzo[d]isothiazol-7-yl-furo[2,3-c]pyridin-4-yl)-pyrazol-1-yl]-piperidin-1-yl}-3-(3-isopropoxy-phenyl)-propenone] | 5.00 to 6.00
20 | Cn1ncc2cccc(-c3cc4c(-c5cnn([C@H]6CC[C@H](O)CC6)c5)cnc(N)c4o3)c21 [Example 357, trans-4-{4-[7-amino-2-(1-methyl-1H-indazol-7-yl)furo[2,3-c]pyridin-4-yl]-1H-pyrazol-1-yl}cyclohexanol] | 5.00 to 6.00
21 | Nc1ncc(-c2cnn(C3CCNCC3)c2)c2cc(C3CCNCC3)oc12 [Example 54, 2-(piperidin-4-yl)-4-[1-(piperidin-4-yl)-1H-pyrazol-4-yl]furo[2,3-c]pyridin-7-amine] | < 5.00
22 | Cc1ccc(-c2cnc(N)c3oc(-c4csc5cnccc45)cc23)o1 [Example 387, 4-(5-methylfuran-2-yl)-2-(thieno[2,3-c]pyridin-3-yl)furo[2,3-c[pyridin-7-amine trifluoroacetate] | 5.00 to 6.00
23 | COC(=O)c1ccc(-c2cnc(N)c3oc(-c4csc5cnccc45)cc23)s1 [Example 382, 5-(7-amino-2-thieno[2,3-c]pyridin-3-yl-furo[2,3-c]pyridin-4-yl)-thiophene-2-carboxylic acid methyl ester] | < 5.00
24 | COc1ccc(COc2cccc(-c3cc4c(-c5cnn(C6CCN(C(C)=O)CC6)c5)cnc(N)c4o3)c2)cc1 [Example 182, 1-{4-[4-(7-amino-2-{3-[(4-methoxybenzyl)oxy]phenyl}furo[2,3-c]pyridin-4-yl)-1H-pyrazol-1-yl]piperidin-1-yl}ethanone] | 5.00 to 6.00
25 | Cc1c(-c2cnc(N)c3oc(-c4csc5cnccc45)cc23)cnn1[C@@H]1C[C@@H](O)[C@@H](O)C1 [Example 312, rel-(1R,2S,4S)-4-[4-(7-amino-2-thieno[2,3-c]pyridin-3-yl-furo[2,3-c]pyridin-4-yl)-5-methyl-pyrazol-1-yl]-cyclopentane-1,2-diol] | 5.00 to 6.00
26 | CC(=O)N1CCC(n2cc(-c3cnc(N)c4oc(-c5cccc(Oc6ccccc6)c5)cc34)cn2)CC1 [Example 186, 1-(4-{4-[7-amino-2-(3-phenoxyphenyl)furo[2,3-c]pyridin-4-yl]-1H-pyrazol-1-yl}piperidin-1-yl)ethanone] | < 5.00
27 | CC(=O)N1CCC(n2cc(-c3cnc(N)c4oc(-c5ccc6c(c5)C(=O)NC6=O)cc34)cn2)CC1 [Example 100, 5-{4-[1-(1-acetylpiperidin-4-yl)-1H-pyrazol-4-yl]-7-aminofuro[2,3-c]pyridin-2-yl}-1H-isoindole-1,3(2H)-dione] | 5.00 to 6.00
28 | CC(=O)Nc1ccccc1-c1cc2c(-c3cnn(C4CCN(C(C)=O)CC4)c3)cnc(N)c2o1 [Example 141, N-(2-{4-[1-(1-acetylpiperidin-4-yl)-1H-pyrazol-4-yl]-7-aminofuro[2,3-c]pyridin-2-yl}phenyl)acetamide] | < 5.00
29 | CCOC(=O)[C@H]1CC[C@H](n2cc(-c3cnc(N)c4oc(-c5csc6cnccc56)cc34)c(C)n2)CC1 [Example 298, 4-[4-(7-amino-2-thieno[2,3-c]pyridin-3-yl-furo[2,3-c]pyridin-4-yl)-3-methyl-pyrazol-1-yl]-cyclohexane carboxylic acid ethyl ester] | < 5.00
30 | Nc1ncc(-c2cnn(C3CCNCC3)c2)c2cc(-c3cccc4c3Sc3ccccc3S4)oc12 [Example 35, 4-[1-(piperidin-4-yl)-1H-pyrazol-4-yl]-2-(thianthren-1-yl)furo[2,3-c]pyridine-7-amine] | 5.00 to 6.00
31 | Nc1ncc(-c2cnn(CCO)c2)c2cc(-c3csc4cnccc34)oc12 [Example 319, 2-[4-(7-amino-2-thieno[2,3-d]pyridin-3-yl-furo[2,3-d]pyridin-4-yl)-pyrazol-1-yl]-ethanol] | 6.00 to 7.00
32 | CC(=O)N1CCC(n2cc(-c3cnc(N)c4oc(-c5cccc(OCC6CCCCC6)c5)cc34)cn2)CC1 [Example 209, 1-[4-(4-{7-amino-2-[3-(cyclohexylmethoxy)phenyl]furo[2,3-c]pyridin-4-yl}-1H-pyrazol-1-yl)piperidin-1-yl]ethanone] | < 5.00
